≈ marks a conversion by molar mass, not a printed value. *1 amine or outer side, *2 acyl side, *3 side chain or, on linkers, in order; H or OH if unused. Where a SMILES comes first, the peptide text is derived from it. [ ]: non-standard residue; d: D form. Pro(trans-4-cHex) = O=C(O)[C@@H]1C[C@@H](C2CCCCC2)CN1; Pro(trans-4-Ph) = O=C(O)[C@@H]1C[C@@H](c2ccccc2)CN1; Pro(cis-4-OPh) = O=C(O)[C@@H]1C[C@H](Oc2ccccc2)CN1; X1 = CS[C@H]1C[C@@H](C(=O)[*:2])N([*:1])C1
Experiments:
MDA-MB-231 = experiment: Antitumor activity against human MDA-MB-231 cells assessed as decrease in cell viability measured after 36 hrs by WST-1 assay; format: functional, cell-based; settings: MDA-MB-231, 36 h
PANC-1 = experiment: Antitumor activity against human PANC-1 cells assessed as decrease in cell viability measured after 36 hrs by WST-1 assay; format: functional, cell-based; settings: PANC-1, 36 h
[1] = Cytotoxicity against human MC3T3-E1 cells assessed as decrease in cell viability measured after 36 hrs by WST-1 assay; format: toxicity, cell-based; settings: mouse
[2] = Selectivity index, Ratio of IC50 for human MC3T3-E1 cells to IC50 of human MDA-MB-231 cells; format: toxicity; settings: MC3T3-E1 cells versus MDA-MB-231 cells, read-out: Ratio IC50
[3] = Selectivity index, Ratio of IC50 for human MC3T3-E1 cells to IC50 of human PANC-1 cells
Nonstructural protein 5A [4] = molecular target: T1, Nonstructural protein 5A (Hepatitis C virus, UniProt Q5L478); experiment: Inhibition of HCV genotype 1a NS5A; design: species or system Hepacivirus hominis
T1 sequence (Q5L478 whole entry): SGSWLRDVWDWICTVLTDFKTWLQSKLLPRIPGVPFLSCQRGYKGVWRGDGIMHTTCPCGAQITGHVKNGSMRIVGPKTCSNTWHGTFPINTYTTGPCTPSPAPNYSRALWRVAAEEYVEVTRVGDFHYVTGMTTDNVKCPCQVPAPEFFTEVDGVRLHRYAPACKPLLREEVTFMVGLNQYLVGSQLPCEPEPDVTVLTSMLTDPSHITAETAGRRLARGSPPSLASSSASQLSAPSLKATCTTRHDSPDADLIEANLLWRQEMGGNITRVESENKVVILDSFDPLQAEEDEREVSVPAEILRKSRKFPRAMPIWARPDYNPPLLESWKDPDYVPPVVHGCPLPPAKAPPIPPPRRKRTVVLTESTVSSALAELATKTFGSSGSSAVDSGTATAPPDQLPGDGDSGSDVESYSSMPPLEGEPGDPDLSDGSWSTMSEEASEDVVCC

Nonstructural protein 5A [5] = molecular target: T1, Nonstructural protein 5A; experiment: Inhibition of HCV genotype 1b NS5A; design: species or system Hepacivirus hominis
Nonstructural protein 5A [6] = molecular target: T1, Nonstructural protein 5A; experiment: Inhibition of HCV genotype 2a NS5A; design: species or system Hepacivirus hominis
Nonstructural protein 5A [7] = molecular target: T1, Nonstructural protein 5A; experiment: Inhibition of HCV genotype 3a NS5A; design: species or system Hepacivirus hominis
Nonstructural protein 5A [8] = molecular target: T1, Nonstructural protein 5A; experiment: Inhibition of HCV genotype 4a NS5A; design: species or system Hepacivirus hominis
Nonstructural protein 5A [9] = molecular target: T1, Nonstructural protein 5A; experiment: Inhibition of HCV genotype 5a NS5A; design: species or system Hepacivirus hominis
Nonstructural protein 5A [10] = molecular target: T1, Nonstructural protein 5A; experiment: Inhibition of HCV genotype 6a NS5A; design: species or system Hepacivirus hominis
Escherichia coli = experiment: Antimicrobial activity against Escherichia coli ATCC 25922 incubated for 18 to 20 hrs; format: functional; settings: time 18-20 hrs
Priestia megaterium = experiment: Antimicrobial activity against Bacillus megaterium Bm11 incubated for 18 to 20 hrs; format: functional; settings: time 18-20 hrs
[11] = tested on: Staphylococcus epidermidis; experiment: Antimicrobial activity against Staphylococcus epidermidis ATCC 12228 incubated for 18 to 20 hrs; format: functional; settings: time 18-20 hrs
Pseudomonas aeruginosa = experiment: Antimicrobial activity against Pseudomonas aeruginosa ATCC 27853 incubated for 18 to 20 hrs; format: functional; settings: time 18-20 hrs
Candida albicans = experiment: Antimicrobial activity against Candida albicans ATCC 24433 incubated for 18 to 20 hrs; format: functional; settings: time 18-20 hrs

Compound | MIC (Escherichia coli) | MIC (Priestia megaterium) | MIC [11] | MIC (Pseudomonas aeruginosa) | MIC (Candida albicans) | other results
CCCCCCCCC#CC(c1ccc(C(=O)OC)cc1)N1CCCC1 (configuration not stated) | – | – | – | – | – | IC50 (MDA-MB-231): 291000 nM; IC50 (PANC-1): 13600 nM; IC50 at 36 h [1]: 558000 nM; selectivity ratio [2]: 1.91; Ratio IC50 [3]: 41.17
CCCCCCCCC#CC(c1ccccc1)N1CCCC1 (configuration not stated) | – | – | – | – | – | IC50 (MDA-MB-231): 74000 nM; IC50 (PANC-1): 21600 nM; IC50 at 36 h [1]: 250000 nM; selectivity ratio [2]: 3.38; Ratio IC50 [3]: 11.6
COC(=O)N[C@H](C(=O)N1CCC[C@H]1c1ncc(-c2ccc3c(c2)CC2c4c(F)cc(-c5cnc([C@@H]6CCCN6C(=O)[C@@H](NC(=O)OC)C(C)C)[nH]5)cc4O[C@@H](c4cnc(C5CC5)s4)N32)[nH]1)C(C)C (some centres not stated) | – | – | – | – | – | EC50 (Nonstructural protein 5A [4]): 0.0007 nM; EC50 (Nonstructural protein 5A [5]): 0.002 nM; EC50 (Nonstructural protein 5A [6]): 0.001 nM; EC50 (Nonstructural protein 5A [7]): 0.003 nM; EC50 (Nonstructural protein 5A [8]): 0.0007 nM; EC50 (Nonstructural protein 5A [9]): 0.0018 nM; EC50 (Nonstructural protein 5A [10]): 0.001 nM
CC[C@H](C)[C@H](NC(=O)[C@H](CCCNC(=N)N)NC(=O)CNC(=O)[C@H](CC(C)C)NC(=O)[C@H](Cc1ccccc1)NC(=O)[C@H](CCCCN)NC(=O)[C@H](CO)NC(=O)[C@H](Cc1ccccc1)NC(=O)[C@H](Cc1c[nH]c2ccccc12)NC(=O)[C@H](CCC(N)=O)NC(=O)[C@@H]1C[C@H](Oc2ccccc2)CN1C(=O)[C@@H](NC(=O)[C@@H](N)Cc1ccccc1)C(C)C)C(=O)N[C@@H](CC(C)C)C(N)=O (H-FV[Pro(cis-4-OPh)]QWFSKFLGRIL-NH2) | 25 µM (≈ 45.7 µg/mL) | 3.12 µM (≈ 5.71 µg/mL) | 3.12 µM (≈ 5.71 µg/mL) | 50 µM (≈ 91.5 µg/mL) | 12.5 µM (≈ 22.9 µg/mL) | –
CC[C@H](C)[C@H](NC(=O)[C@H](CCCNC(=N)N)NC(=O)CNC(=O)[C@H](CC(C)C)NC(=O)[C@H](Cc1ccccc1)NC(=O)[C@H](CCCCN)NC(=O)[C@H](CO)NC(=O)[C@H](Cc1ccccc1)NC(=O)[C@H](Cc1c[nH]c2ccccc12)NC(=O)[C@H](CCC(N)=O)NC(=O)[C@@H]1C[C@@H](c2ccccc2)CN1C(=O)[C@@H](NC(=O)[C@@H](N)Cc1ccccc1)C(C)C)C(=O)N[C@@H](CC(C)C)C(N)=O (H-FV[Pro(trans-4-Ph)]QWFSKFLGRIL-NH2) | 12.5 µM (≈ 22.7 µg/mL) | 3.12 µM (≈ 5.66 µg/mL) | 3.12 µM (≈ 5.66 µg/mL) | 50 µM (≈ 90.7 µg/mL) | 12.5 µM (≈ 22.7 µg/mL) | –
CC[C@H](C)[C@H](NC(=O)[C@H](CCCNC(=N)N)NC(=O)CNC(=O)[C@H](CC(C)C)NC(=O)[C@H](Cc1ccccc1)NC(=O)[C@H](CCCCN)NC(=O)[C@H](CO)NC(=O)[C@H](Cc1ccccc1)NC(=O)[C@H](Cc1c[nH]c2ccccc12)NC(=O)[C@H](CCC(N)=O)NC(=O)[C@@H]1C[C@@H](C2CCCCC2)CN1C(=O)[C@@H](NC(=O)[C@@H](N)Cc1ccccc1)C(C)C)C(=O)N[C@@H](CC(C)C)C(N)=O (H-FV[Pro(trans-4-cHex)]QWFSKFLGRIL-NH2) | 50 µM (≈ 91 µg/mL) | 3.12 µM (≈ 5.68 µg/mL) | 3.12 µM (≈ 5.68 µg/mL) | 100 µM (≈ 182 µg/mL) | 25 µM (≈ 45.5 µg/mL) | –
CC[C@H](C)[C@H](NC(=O)[C@H](CCCNC(=N)N)NC(=O)CNC(=O)[C@H](CC(C)C)NC(=O)[C@H](Cc1ccccc1)NC(=O)[C@H](CCCCN)NC(=O)[C@H](CO)NC(=O)[C@H](Cc1ccccc1)NC(=O)[C@H](Cc1c[nH]c2ccccc12)NC(=O)[C@H](CCC(N)=O)NC(=O)[C@@H]1C[C@H](SC)CN1C(=O)[C@@H](NC(=O)[C@@H](N)Cc1ccccc1)C(C)C)C(=O)N[C@@H](CC(C)C)C(N)=O (H-FV[X1]QWFSKFLGRIL-NH2) | 12.5 µM (≈ 22.3 µg/mL) | 3.12 µM (≈ 5.56 µg/mL) | 3.12 µM (≈ 5.56 µg/mL) | 25 µM (≈ 44.6 µg/mL) | 6.25 µM (≈ 11.1 µg/mL) | –
H-FVPQWFSKFLGRIL-NH2 | 12.5 µM | 3.12 µM | 3.12 µM | 25 µM | 12.5 µM | –
